Where two headings read alike, the source gives them in different places.
Experiments:
[1] = for C2H5OH % Decrease at Equilibrium, Trial 2 / C2H5OH % Decrease at Equilibrium, Trial 3 / C2H5OH % Decrease at Equilibrium, Trial 4 / C2H5OH % Decrease at Equilibrium, Trial 5 / C2H5OH % Decrease at Equilibrium, Average / C2H5OH % Decrease at Equilibrium, Trial 1: equal acetic acid
Description: Titrations with potassium permanganate (KMnO4) were later performed after the contents of each beaker received 5 minutes each of vigorous stirring and 25 minutes of inactivity to compare the final amount of ethanol left with the original amount.
In the following we describe the detailed procedure of in vitro experiment to verify the validity of reducing the amount of ethanol by esterification: • 1. Label four 100-mL beakers, 0.4 M, 0.6 M, 0.8 M, and 1.0 M. • 2. Put 17.15 mL of distilled water into each. • 3. Add 0.4 mL of concentrated ethanol to the first beaker, 0.6 mL to the second, 0.8 mL to the third, and 1.0 mL to the fourth. Swivel each beaker gently for 20-30 seconds to ensure mixing. See calculations below for explanation. • 4. Add another 17.15 mL of water to each beaker • 5. […] See calculations below for explanation. • 6. Stir each sample vigorously for five minutes in succession. […] Put on latex gloves before handling potassium permanganate. • 8. Set up two burettes, and fill each with approximately 100 mL of 0.2 M potassium permanganate. This will enable two titrations to be simultaneously done. • 9. Record the initial volume of potassium permanganate present in both burettes. • 10. Place 1.0 M and 0.8 M beakers on hot plate, and turn to power level 3. Heating quickens the titration process. • 11. Slowly drip KMnO4 into beakers while stirring. Make sure that each beaker is consistently titrated with the same burette to ensure that the exact volumes of KMnO4 that each beaker received can be easily calculated. • 12. Potassium permanganate is purple in color. When reacted with ethanol, a brown color (manganese oxide, MnO2) appears. The reaction is as follows:
When potassium permanganate ceases to be converted into manganese oxide, and the purple color stays, the titration is finished. There is no ethanol left in the beaker to react with potassium permanganate. • 13. Remove both beakers from hot plate. Measure the volume of potassium permanganate remaining in each burette. Subtract from the original volumes to find the volume of KMnO4 consumed in each reaction. • 14. Repeat steps 9-13 for the 0.6 M and 0.4 M beakers. • 15. Use stoichiometry to calculate the molar amount of 0.2 M potassium permanganate used in each titration. • 16. Ethanol and potassium permanganate react in a 3:4 molar ratio, according to the equation 3C2H5OH+4KMnO4→3CH3COOH+4MnO2+4KOH+H2O.
Again, use a chain calculation to calculate the molar amount of ethanol remaining in each beaker, then divide by […] to convert to molarity. Compare to the molarity of ethanol originally in each beaker. Calculate % error. • 17. Results (see Table 2)

[2] = eight male volunteers, alcoholic beverage followed by 30 grams of fructose or sucrose, hourly measurements; cited from earlier work

CC(=O)O [acetic acid]
decrease in the amount of ethanol when the system reaches equilibrium ([1]; 0.4-1.0 M ethanol with same volume and concentration of acetic acid): 79-86%
reduction of the ethanol amount ([1]; equal molar number of acetic acid added to the ethanol solution, 5 repeats): 80-90%
C2H5OH % Decrease at Equilibrium, Trial 2 ([1]; initial C2H5OH 0.4 M): 78.1%
C2H5OH % Decrease at Equilibrium, Trial 3 ([1]; initial C2H5OH 0.4 M): 81.5%
C2H5OH % Decrease at Equilibrium, Trial 4 ([1]; initial C2H5OH 0.4 M): 81.2%
C2H5OH % Decrease at Equilibrium, Trial 5 ([1]; initial C2H5OH 0.4 M): 80.0%
C2H5OH % Decrease at Equilibrium, Average ([1]; initial C2H5OH 0.4 M, average of trials): 80.2%
C2H5OH % Decrease at Equilibrium, Trial 2 ([1]; initial C2H5OH 0.6 M): 82.7%
C2H5OH % Decrease at Equilibrium, Trial 3 ([1]; initial C2H5OH 0.6 M): 83.8%
C2H5OH % Decrease at Equilibrium, Trial 4 ([1]; initial C2H5OH 0.6 M): 83.7%
C2H5OH % Decrease at Equilibrium, Trial 5 ([1]; initial C2H5OH 0.6 M): 82.5%
C2H5OH % Decrease at Equilibrium, Average ([1]; initial C2H5OH 0.6 M, average of trials): 83.2%
C2H5OH % Decrease at Equilibrium, Trial 1 ([1]; initial C2H5OH 0.8 M): 89.1%
C2H5OH % Decrease at Equilibrium, Trial 2 ([1]; initial C2H5OH 0.8 M): 86.2%
C2H5OH % Decrease at Equilibrium, Trial 3 ([1]; initial C2H5OH 0.8 M): 84.7%
C2H5OH % Decrease at Equilibrium, Trial 4 ([1]; initial C2H5OH 0.8 M): 84.6%
C2H5OH % Decrease at Equilibrium, Trial 5 ([1]; initial C2H5OH 0.8 M): 85.5%
C2H5OH % Decrease at Equilibrium, Average ([1]; initial C2H5OH 0.8 M, average of 5 trials): 86.0%
C2H5OH % Decrease at Equilibrium, Trial 1 ([1]; initial C2H5OH 1.0 M): 91.3%
C2H5OH % Decrease at Equilibrium, Trial 2 ([1]; initial C2H5OH 1.0 M): 88.8%
C2H5OH % Decrease at Equilibrium, Trial 3 ([1]; initial C2H5OH 1.0 M): 86.5%
C2H5OH % Decrease at Equilibrium, Trial 4 ([1]; initial C2H5OH 1.0 M): 91.1%
C2H5OH % Decrease at Equilibrium, Trial 5 ([1]; initial C2H5OH 1.0 M): 90.4%
C2H5OH % Decrease at Equilibrium, Average ([1]; initial C2H5OH 1.0 M, average of 5 trials): 89.6%

O=C(CO)[C@@H](O)[C@H](O)[C@H](O)CO [fructose]
percent of ethanol decrease (plateau, on average) [2]: 29%

OC[C@H]1O[C@@](CO)(O[C@H]2O[C@H](CO)[C@@H](O)[C@H](O)[C@H]2O)[C@@H](O)[C@@H]1O [sucrose]
percent of ethanol decrease (plateau, on average) [2]: 29%
